Measurements reported in patent US8394824B2 (priority 2004, dated 2013).

How the values were obtained:
[1] = tested on: specific allergic asthma of guinea pigs; conditions: guinea pig, in vivo
[2] = tested on: ex vivo ileum specimen

C[N+]12CCC(CC1)C(OCC(O)(c1ccccc1)C1CCCC1)C2.[Br-] (single isomer, unassigned) [Example 3, 1-type diastereoisomer of 3-(N-methyl-quinuclidinyl)-(2′-phenyl-2′-cyclopentyl-2′-hydroxyl)ethyl ether bromide]
latent period [1]: 243.50 ± 42.13 s
ileum contraction response resulted from electric irritation [2]: completely blocked

C[N+]12CCC(CC1)C(OCC(O)(c1ccccc1)C1CCCC1)C2.[Br-] (single isomer, unassigned) [Example 4, II-type diastereoisomer of 3-(N-methyl-quinuclidinyl)-(2′-phenyl-2′-cyclopentyl-1-2′-hydroxyl)ethyl ether bromide]
latent period [1]: 231.60 ± 37.30 s
ileum contraction response resulted from electric irritation [2]: completely blocked

C[N+]12CCC(CC1)C(OCC(O)(c1ccccc1)C1CCCC1)C2.[Br-] (stereo not drawn) [Example 2, 3-(N-methyl-quinuclidinyl)-(2′-phenyl-2′-cyclopentyl-2′-hydroxyl)ethyl ether bromide]
latent period [1]: 248.90 ± 38.24 s
ileum contraction response resulted from electric irritation [2]: completely blocked
